Experimental data published in patent publication US20160205934A1 (Rohm and Haas Company, priority 2013, published 2016).
Read-outs that look alike come from different tables or passages of the source.

Tests used:
Chlorella sp. ATCC 7516 = test: Algal efficacy testing of dry paint films (modified ASTM 5589, 6-well plates); format: cell-based; settings: 4 weeks; for inhibition at 1000 ppm: total conc 1000 ppm; for Total conc: total biocide conc in paint chosen as minimum inhibitory concentration (pass level 75% inhibition), or maximum tested where pass not reached
Description: (§1) The at least one phenylurea herbicide, (diuron, chlorotoluron, and/or isoproturon) was post added, as 33% active slurries, to a white, acrylic/silicone based outdoor paint free of biocides to give a total active ingredient concentration of 10000 and 1000 ppm respectively. These paints were then diluted with an antimicrobial free acrylic/silicone based paint and mixed to prepare targeted concentrations of antimicrobial compounds for the testing. The total biocides concentrations tested were 125, 250, 500, 1000, 2000 and 5000 ppm. After biocides addition or dilution, the paints were mixed 90 seconds with the horse power shaker (AXEL 75M3372/Agitateur SO-10MI) until uniformity was achieved. Paints containing different antimicrobial compounds at the same levels were mixed together in order to obtain the desired ratio of antimicrobial compounds. After one day, the paints were applied to Schleicher & Schuell filter paper at 280 μm wet film thickness and dried for 3 days at room temperature avoiding direct exposure to sunlight. Square discs (1.6 cm×1.6 cm) were cut out from each panel and were used as the substrate for algal efficacy tests. This sample size allowed for an agar border when the sample disc was placed into the well of the test plate.
(§2) Algal efficacy was tested according to modified ASTM 5589 which is a standard accelerated test method for determining resistance of various coatings (including paints) to algal defacement. To accommodate for high-throughput screening, this method was scaled down from petri dishes to 6-well plates. Bold Modified Basal Freshwater Nutrient Solution was used as growth medium. A single coated filter paper coupon was placed with a pair of sterile forceps at the center of the agar plug (on top) with the painted surface facing upwards. Algal inoculums were prepared by mixing equal concentrations (1×10^6 cfu/ml) and equal volumes of exponentially growing algae cultures.
(§3) Each well that contains a tested coupon was inoculated with 1750 μl of algal suspensions (1×10^6 cfu/ml) making sure that the whole surface (paint film as well as the agar surrounding it) was evenly covered. The plates were incubated at room temp (21° C.-25° C.) with cyclic exposure to light and dark phases, for a period of four weeks.
(§4) At the end of the four week incubation period, the samples were scored for percent inhibition regarding visible algal growth compared to the blank sample (0% inhibition).
(§5) The minimal targeted inhibition was set at 75%, meaning a coupon with at least 75% algal growth inhibition was considered as a pass.

[1] = tested on: Stichococcus bacillaris SAG 379-1a / CCAP 379/1a; test: as above; format: cell-based; settings: for Total conc: total biocide conc in paint chosen as minimum inhibitory concentration (pass level 75% inhibition), or maximum tested where pass not reached
Description: as §1, §2, §3, §4, §5

[2] = 672 h, visible algal growth vs blank
[3] = Stichococcus bacillaris, 672 h, Stichococcus, total conc 500 ppm, 4 weeks, visible algal growth vs blank, read-out: % inhibition

`Cc1ccc(NC(=O)N(C)C)cc1Cl` [Chlorotoluron, chlorotoluron] gave an inhibition at 1000 ppm (Chlorella sp. ATCC 7516; [2]) of 100%, a Total conc (Chlorella sp. ATCC 7516) of 1000 ppm and an inhibition at 500 ppm [1, 3] of 75%. It also gave a Total conc ([1]; Stichococcus, 4 weeks) of 500 ppm.
With `CN(C)C(=O)Nc1ccc(Cl)c(Cl)c1` [Diuron, diuron] the inhibition at 500 ppm (Chlorella sp. ATCC 7516; 672 h, total conc 500 ppm, visible algal growth vs blank) was 90%, the Total conc (Chlorella sp. ATCC 7516) was 500 ppm and the inhibition at 500 ppm ([1]; Stichococcus bacillaris, 672 h) was 95%. It also gave a Total conc ([1]; Stichococcus, 4 weeks) of 500 ppm.
Work on `CC(C)c1ccc(NC(=O)N(C)C)cc1` [Isoproturon, isoproturon] yielded an inhibition at 1000 ppm (Chlorella sp. ATCC 7516; [2]) of 100%, a Total conc (Chlorella sp. ATCC 7516) of 1000 ppm and an inhibition at 500 ppm [1, 3] of 75%. It also gave a Total conc ([1]; Stichococcus, 4 weeks) of 500 ppm.
With `O=c1[nH]c2c(c(=O)n1C1CCCCC1)CCC2` [Lenacil, 3-cyclohexyl-1,5,6,7-tetrahydrocyclopentapyrimidine-2,4(3H)-dione] the inhibition at 5000 ppm (Chlorella sp. ATCC 7516; 672 h, total conc 5000 ppm, visible algal growth vs blank) was 45%, the Total conc (Chlorella sp. ATCC 7516) was 5000 ppm and the “% inhibition” value (Chlorella sp. ATCC 7516; total conc 5000 ppm, visible algal growth vs blank) was 50%. It also gave an inhibition at 2000 ppm ([1]; Stichococcus bacillaris, 672 h) of 80% and an inhibition at 5000 ppm ([1]; Stichococcus bacillaris, 672 h) of 65%.
